Results: paper PMC8241580 (Bioorganic Chemistry, 2021)
Where “and” joins values, the source holds several entries; their conditions need not be identical. Identical values can stand only once.

Key:
[1] = system: MCF7 (breast) cancer cell line; assay: MTT antiproliferative assay, MCF7; format: cell-based; settings: for IC50: Homo sapiens, MCF7, 72 h, read-out: IC50 (μM) ± SE MCF7
VEGFR-2 = VEGFR-2 (Homo sapiens, UniProt P35968); assay: VEGFR-2; format: biochemical; settings: for VEGFR-2 inhibitory potency relative to Sunitinib: ratio of IC50 values
VEGFR-2, sequence (P35968 20-1356): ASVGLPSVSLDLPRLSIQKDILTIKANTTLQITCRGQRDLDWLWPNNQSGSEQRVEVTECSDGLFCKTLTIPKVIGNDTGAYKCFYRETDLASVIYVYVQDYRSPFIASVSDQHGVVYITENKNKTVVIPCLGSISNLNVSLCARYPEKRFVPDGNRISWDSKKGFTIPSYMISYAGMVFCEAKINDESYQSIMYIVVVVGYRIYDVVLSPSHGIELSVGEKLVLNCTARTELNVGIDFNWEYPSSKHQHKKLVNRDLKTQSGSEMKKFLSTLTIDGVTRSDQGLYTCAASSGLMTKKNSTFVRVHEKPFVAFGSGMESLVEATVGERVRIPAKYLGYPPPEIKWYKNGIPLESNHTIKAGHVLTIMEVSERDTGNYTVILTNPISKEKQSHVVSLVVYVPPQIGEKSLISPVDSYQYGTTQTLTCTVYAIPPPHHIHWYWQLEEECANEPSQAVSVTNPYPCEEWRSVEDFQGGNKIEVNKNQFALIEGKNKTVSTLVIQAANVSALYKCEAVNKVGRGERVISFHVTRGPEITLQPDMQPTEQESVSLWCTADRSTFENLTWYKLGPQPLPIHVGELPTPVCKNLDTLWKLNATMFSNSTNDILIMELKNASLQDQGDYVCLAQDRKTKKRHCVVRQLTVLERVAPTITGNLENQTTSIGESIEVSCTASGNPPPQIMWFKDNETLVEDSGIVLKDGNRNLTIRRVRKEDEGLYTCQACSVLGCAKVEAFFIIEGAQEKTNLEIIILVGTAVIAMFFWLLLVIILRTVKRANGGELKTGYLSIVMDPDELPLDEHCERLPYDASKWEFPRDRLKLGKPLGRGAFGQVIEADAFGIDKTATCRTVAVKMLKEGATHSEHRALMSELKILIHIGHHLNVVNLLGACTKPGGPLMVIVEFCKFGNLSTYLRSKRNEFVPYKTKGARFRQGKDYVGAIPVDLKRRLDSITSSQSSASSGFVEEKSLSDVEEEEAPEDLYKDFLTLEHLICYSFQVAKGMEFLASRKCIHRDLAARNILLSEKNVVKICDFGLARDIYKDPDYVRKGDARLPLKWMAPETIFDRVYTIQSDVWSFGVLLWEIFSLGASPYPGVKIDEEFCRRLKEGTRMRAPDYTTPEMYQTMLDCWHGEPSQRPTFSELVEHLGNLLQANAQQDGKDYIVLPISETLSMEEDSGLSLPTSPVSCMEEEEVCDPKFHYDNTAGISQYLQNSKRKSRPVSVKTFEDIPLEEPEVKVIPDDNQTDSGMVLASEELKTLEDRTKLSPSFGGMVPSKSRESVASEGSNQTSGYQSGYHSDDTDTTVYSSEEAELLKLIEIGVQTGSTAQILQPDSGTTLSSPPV

SARS-CoV-2 = assay: Antiviral assay, virus-induced cytopathic effect; format: cell-based, SARS-CoV-2 (hCoV-19/Egypt/NRC-03/2020); settings: CC50 VERO-E6 / IC50 SARS-CoV-2
[2] = system: chick embryo chorioallantoic membrane (CAM) blood vessels; assay: CAM assay; format: in vivo, chicken; settings: 20 μl of 660 μM, 3 days of treatment, n = 4, vehicle control 14.00 ± 3.00
[3] = system: HCT116 (colon) cancer cell line; assay: MTT antiproliferative assay, HCT116; format: cell-based; settings: Homo sapiens, HCT-116, 72 h, read-out: IC50 (μM) ± SE HCT116
MCF7 cells [4] = assay: Cell cycle analysis by PI-flow cytometry; format: cell-based; settings: MCF7, compound at its IC50; for DNA content (%) Pre-G1: control 1.49; for DNA content (%) G2/M: control 5.09; for DNA content (%) S: control 41.12; for DNA content (%) G0-G1: control 53.79
[5] = system: PaCa-2 (pancreatic) cancer cell line; assay: MTT antiproliferative assay, PaCa-2; format: cell-based; settings: for IC50: PaCa-2, 72 h, read-out: IC50 (μM) ± SE PaCa-2; for Potency against PaCa2 relative to Sunitinib: ratio of IC50 values
c-kit = c-kit (Homo sapiens, UniProt P10721); assay: c-Kit ADP-Glo kinase assay; format: biochemical
c-kit, sequence (P10721 26-976): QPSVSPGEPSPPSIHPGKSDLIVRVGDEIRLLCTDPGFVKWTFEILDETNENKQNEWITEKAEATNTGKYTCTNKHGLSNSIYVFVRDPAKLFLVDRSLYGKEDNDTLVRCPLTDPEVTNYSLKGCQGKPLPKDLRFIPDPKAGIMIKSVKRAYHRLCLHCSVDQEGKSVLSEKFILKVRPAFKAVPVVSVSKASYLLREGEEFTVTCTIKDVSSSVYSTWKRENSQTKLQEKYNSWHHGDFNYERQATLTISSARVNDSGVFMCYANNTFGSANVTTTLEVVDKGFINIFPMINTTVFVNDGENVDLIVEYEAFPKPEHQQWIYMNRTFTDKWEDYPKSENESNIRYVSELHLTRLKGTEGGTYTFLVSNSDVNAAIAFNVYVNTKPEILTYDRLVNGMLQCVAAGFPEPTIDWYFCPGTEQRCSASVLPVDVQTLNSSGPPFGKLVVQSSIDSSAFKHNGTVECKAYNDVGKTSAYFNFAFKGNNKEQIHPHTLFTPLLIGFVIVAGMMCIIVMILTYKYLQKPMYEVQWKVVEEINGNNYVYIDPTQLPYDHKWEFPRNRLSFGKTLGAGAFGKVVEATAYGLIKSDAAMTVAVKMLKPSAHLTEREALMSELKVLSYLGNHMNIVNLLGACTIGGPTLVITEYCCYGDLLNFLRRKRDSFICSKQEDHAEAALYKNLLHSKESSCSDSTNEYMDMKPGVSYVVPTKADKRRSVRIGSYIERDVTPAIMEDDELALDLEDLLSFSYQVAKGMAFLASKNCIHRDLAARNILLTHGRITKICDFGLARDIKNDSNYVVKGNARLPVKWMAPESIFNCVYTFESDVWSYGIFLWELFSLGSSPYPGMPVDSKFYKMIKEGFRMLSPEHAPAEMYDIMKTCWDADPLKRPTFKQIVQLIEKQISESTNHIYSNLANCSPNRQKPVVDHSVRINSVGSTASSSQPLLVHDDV

MCF7 cells [6] = assay: Annexin V-FITC apoptosis/necrosis study; format: cell-based; settings: MCF7, compound at its IC50; for Apoptosis (%) Late: control 0.13; for Apoptosis (%) Early: control 0.49; for Necrosis: control 0.87; for Apoptosis (%) Total: control 1.49

Compound | IC50 [1] [µM] | IC50 (VEGFR-2) [µM] | SI (Selectivity index/therapeutical index) = CC50/IC50 (SARS-CoV-2) | Mean diameter of blood vessels (mm ± SD) [2] | IC50 [3] [µM] | DNA content (%) G2/M (MCF7 cells [4]) [%] | DNA content (%) S (MCF7 cells [4]) [%] | DNA content (%) G0-G1 (MCF7 cells [4]) [%] | IC50 [5] [µM] | IC50 (c-kit) [µM] | Potency against PaCa2 relative to Sunitinib [5] | also measured
CS(=O)(=O)Oc1ccc(C(=O)/C=C2/C(=O)Nc3ccccc32)cc1 [Compound 6a, (E)-4-[2-(2-Oxoindolin-3-ylidene)acetyl]phenyl methanesulfonate] | 6.85 ± 0.37 | 0.054 ± 0.0054 | 362.5 | 3.20 ± 1.00 mm | 16.4 ± 0.7 | 2.67 | 43.25 | 54.08 | 8.3 ± 0.44 | 0.12 ± 0.012 | – | DNA content (%) Pre-G1 (MCF7 cells [4]): 34.71%
CS(=O)(=O)N(c1ccc(C(=O)/C=C2/C(=O)Nc3ccccc32)cc1)S(C)(=O)=O [Compound 10a, (E)-N-(Methylsulfonyl)-N-{4-[2-(2-oxoindolin-3-ylidene)acetyl]phenyl}methanesulfonamide] | 6.07 ± 0.83 | 0.102 ± 0.0102 | 7.4 | 3.50 ± 0.50 mm | 21 ± 1.75 | 4.11 | 54.18 | 41.71 | 6.91 ± 0.89 | 0.103 ± 0.0103 | – | DNA content (%) Pre-G1 (MCF7 cells [4]): 28.25%
NC(=O)c1nc(F)c[nH]c1=O [Favipiravir, reference compound] | – | – | 1.9 | – | – | – | – | – | – | – | – | –
CCS(=O)(=O)N(c1ccc(C(=O)/C=C2/C(=O)Nc3ccc(Cl)cc32)cc1)S(=O)(=O)CC [Compound 10c, (E)-N-{4-[2-(5-Chloro-2-oxoindolin-3-ylidene)acetyl]phenyl}-N-(ethylsulfonyl)ethanesulfonamide] | 4.43 ± 0.47 | 0.0534 ± 0.0053 | 75.5 | 5.0 mm and 5.00 ± 0.40 mm | > 50 | – | – | – | 6.18 ± 0.32 | 0.0817 ± 0.0082 | – | Potency against MCF7 relative to Sunitinib ([1]; ratio of IC50 values): 0.9 fold; VEGFR-2 inhibitory potency relative to Sunitinib (VEGFR-2): 0.89 fold
CCS(=O)(=O)Oc1ccc(C(=O)/C=C2/C(=O)Nc3ccccc32)cc1 [Compound 6b, (E)-4-[2-(2-Oxoindolin-3-ylidene)acetyl]phenyl ethanesulfonate] | 4.25 ± 0.23 | 0.0989 ± 0.0099 | 23.8 | 5.10 ± 1.00 mm | 12.8 ± 1.41 | 2.67 | 43.25 | 54.08 | 5.6 ± 0.57 | 0.248 ± 0.0248 | three time folds | Apoptosis (%) Late (MCF7 cells [6]): 22.91%; Apoptosis (%) Early (MCF7 cells [6]): 2.51%; Necrosis (MCF7 cells [6]): 9.29%; Apoptosis (%) Total (MCF7 cells [6]): 34.71%; Cell cycle phase arrested (MCF7 cells [4]): arrests the cell cycle at G1/S phase; Decrease in cell population at G2/M relative to control (MCF7 cells [4]): 47.5%
CCN(CC)CCCC(C)Nc1ccnc2cc(Cl)ccc12 (stereo not drawn) [Chloroquine, reference compound] | – | – | 19.1 | – | – | – | – | – | – | – | – | –
CCN(CCO)CCCC(C)Nc1ccnc2cc(Cl)ccc12 (stereo not drawn) [Hydroxychloroquine, reference compound] | – | – | 12.2 | – | – | – | – | – | – | – | – | –
CCS(=O)(=O)N(c1ccc(C(=O)/C=C2/C(=O)Nc3ccccc32)cc1)S(=O)(=O)CC [Compound 10b, (E)-N-(Ethylsulfonyl)-N-{4-[2-(2-oxoindolin-3-ylidene)acetyl]phenyl}ethanesulfonamide] | 4.15 ± 0.78 | 0.0741 ± 0.0074 | 165.6 | 2.70 ± 0.40 mm | 13.8 ± 1.06 | – | 54.18 | – | 5.08 ± 0.57 | 0.185 ± 0.0185 | ~3.3 folds | Apoptosis (%) Late (MCF7 cells [6]): 17.15%; Apoptosis (%) Early (MCF7 cells [6]): 4.03%; Necrosis (MCF7 cells [6]): 7.07%; Apoptosis (%) Total (MCF7 cells [6]): 28.25%; Cell cycle phase arrested (MCF7 cells [4]): arrest the tested cell at S phase; Increment in S phase relative to control (MCF7 cells [4]): about 13%
CCN(CC)CCNC(=O)c1c(C)[nH]c(/C=C2\C(=O)Nc3ccc(F)cc32)c1C [Sunitinib, reference compound] | – | – | – | 5 mm and 5.0 mm and 5.00 ± 0.71 mm | 5.03 ± 0.3 | – | – | – | 16.9 ± 0.95 | – | – | –
CCS(=O)(=O)Oc1ccc(C(=O)/C=C2/C(=O)Nc3ccc(Cl)cc32)cc1 [Compound 6c, (E)-4-[2-(5-Chloro-2-oxoindolin-3-ylidene)acetyl]phenyl ethanesulfonate] | 4.28 ± 0.51 | 0.0369 ± 0.0037 | 26.4 | 5.1 mm and 5.13 ± 0.90 mm | 5.33 ± 0.46 | – | – | – | 4.99 ± 0.29 | 0.0723 ± 0.0072 | about 3.4 folds | VEGFR-2 inhibitory potency relative to Sunitinib (VEGFR-2): 1.3 fold
